# Experimental data reported in article PMC6010047, “Design, synthesis and biological evaluation of novel hydroxy-phenyl-1H-benzimidazoles as radical scavengers and UV-protective agents” (Journal of Enzyme Inhibition and Medicinal Chemistry, 2017).
# Where two headings read alike, the source gives them in different places.
# Columns and labels:
# [1] = 1,1-Diphenyl-2-picryl-hydrazyl radical (DPPH) assay; format: biochemical; conditions: Trolox equivalents; mean ± SE of three experiments
# Experimental: To 1.5 mL DPPH methanolic solution (0.5 mM) was added 0.750 mL of sample solution proper diluted. Samples absorbance measurements were evaluated with a UV-VIS spectrophotometer (Thermo Spectronic Helios γ, Cambridge, UK) at fixed wavelength of 517 nm. Blank sample was prepared adding methanol to DPPH solution and Trolox was used as standard reference to achieve a calibration curve. The radical-scavenging activity is expressed as inhibition ratio of initial concentration of DPPH radical and is calculated according to the formula: Inhibition percentage (Ip) = [(AB-As)/AB]·100; where AB and As are, respectively, the absorbance values of blank reaction and of the tested sample[25].
# [2] = Ferric reducing antioxidant of potency (FRAP) assay; format: biochemical; conditions: Trolox equivalents; mean ± SE of three experiments
# Experimental: The ferric reducing ability of each standard solution was measured according to a modified protocol described by Guihua et al.[26]. The reagent for analysis was freshly prepared by mixing the following solutions in the reported ratio 10/1/1 (v:v:v) (i) 0.1 M acetate buffer pH 3.6, (ii) TPTZ (2,4,6-Tri(2-pyridyl)-s-triazine) 10 mmol/L in 40 mmol/HCl, (iii) ferric chloride 20 mmol/L. To a 1.9 mL of reagent were added 0.1 mL of sample proper diluted or solvent when blank was performed. Readings at fixed wavelength of the absorption maximum (593 nm) were done after 30 min, using a UV-VIS spectrophotometer; it was evaluated the absorbance increase of sample solution against the absorbance of blank reaction as parameter to calculate the antioxidant activity. The antioxidant activity is given as Trolox activity since this standard was used to perform the calibration curves.
# [3] = UV spectra: λmax and molar extinction coefficient; format: physicochemical
# Experimental: Sun protection factor (SPF) is related to the UV absorption of the substances, so before including the molecules in cosmetic formulations we evaluated the wavelength of maximum absorption (λmax) and the molar extinction coefficient (ɛ) of each molecule in aqueous solution at pH 7. The UV spectra were recorded between 270 and 420 nm (20 nm higher and lower then UVA and UVB range) to verify the spectrum profile of the molecules within UVA and UVB region. UV spectrum of PBSA is an UVB filter and presents a λmax of 302 nm; after this peak, the absorbance fades going to higher wavelength until almost zero around 325 nm, and then, it provides no absorption in the UVA region. Molecules spectra overlapped for category according to the substituent in position 5 of the benzimidazole ring are shown in Figures 1, 2 and 3; PBSA spectrum is presented in all figures for comparison.
# From the spectra appears that the lambda maxima (Table 2) of the new molecules shifted toward higher wavelength and in general the range of absorption curve was wider than PBSA. Within a group of molecules, the batochromic shift was more marked for the molecules that have a hydroxyl moiety in position 2 of the phenyl ring (4, 5, 6, 9, 10, 11, 13 and […]); the effect of ortho substituted is known to produce this shift toward higher wavelength. Increasing the number of auxochrome groups on phenyl ring an increment in the absorption range occurred, compounds with three hydroxyl on the phenyl ring (6, 11, 15) had the broadest spectrum and their lambda maxima shifted at the highest wavelength compared to the other compounds. The absorption spectrum of molecules with the same number and position of hydroxyl seemed only slightly influenced by the substituent in position 5 of the benzimidazole ring. After having established the lambda maxima for every compound, solutions at different concentrations were prepared to calculate the molar extinction coefficient by means of linear regression and applying Lambert–Beer equation (Table 2).
# [4] = Cytotoxicity, MTT test, 72 h; conditions: human, NCTC-2544 keratinocytes (immortalized, nontumorigenic)
# Experimental: (§1) An immortalized, nontumorigenic cell line of human keratinocytes (NCTC-2544) was grown in a DMEM medium (Sigma-Aldrich Milan, Italy), supplemented with 115 units/mL of penicillin G, 115 μg/mL streptomycin, and 10% fetal calf serum (Invitrogen, Milan, Italy). Individual wells of a 96-well tissue culture microtiter plates (Falcon, Becton–Dickinson) were inoculated with 100 μL of complete medium containing 5 × 10^3 NCTC-2544. The plates were incubated at 37 °C in a humidified (5% CO2) incubator for 18 h prior to the experiments.
# After medium removal, 100 μL of the drug solution, dissolved in DMSO and diluted in DMEM medium, was added to each well, incubated at 37 °C for 72 h. Final DMSO concentration never exceeded 0.5%. Cell viability was assayed by the MTT (3–(4,5-dimethylthiazol-2-yl)-2,5 diphenyl tetrazolium bromide) test as previously described by Mosmann[27].
# The tests were conducted using a specific cell line of human keratinocytes (NCTC-2544). To assess cell viability, in the presence of the study compounds, before and after the irradiation, the MTT assay was performed[27]. The cytotoxicity was checked after 72 h from the incubation of the keratinocytes with compounds; moreover, the same experiments were performed in the presence of the parent PBSA.
# [5] = tested on: NCTC-2544 cells; assay: Phototoxicity / cellular photoprotection, UVA or UVB irradiation, MTT test; conditions: Homo sapiens, NCTC-2544, light or radiation study, 48 h
# Experimental: as §1
# Two HPW 125 Philips lamps, mainly emitting at 365 nm, were used for UVA irradiation experiments. The spectral irradiance of the source was 4.0 mWcm^−^2 as measured at the sample level by a Cole-Parmer Instrument Company radiometer (Niles, IL) equipped with a 365-CX sensor. One or two PL-S 9 W/12 Philips lamps (280–370 nm; peak at 315 nm) were used for UVB irradiation experiments. To restrict the incident radiation to the range 305–370 nm, a glass filter (Schott SWG-305) was used. Total energy was detected by the same equipped with a sensor (model CX-312).
# After medium removal, 100 μL of the drug solution, dissolved in DMSO and diluted with Hank’s Balanced Salt Solution (HBSS pH =7.2), was added to each well, incubated at 37 °C for 30 min, and then irradiated (20 J/cm^2 for UVA and 0.5 and 1 J/cm^2 for UVB). After irradiation, the solution was replaced with the medium and the plates were further incubated for 48 h. Cell viability was assayed by the MTT [(3–(4,5-dimethylthiazol-2-yl)-2,5 diphenyl tetrazolium bromide)] test as previously described by Mosmann[27].
# Molecules were verified for their photocytotoxicity in the same cell line; the cells were treated with 50 μM solutions of compound and after 30 min were irradiated with 20 J/cm^2 UVA or with UVB at two energy amounts: 0.5 J/cm^2 and 1 J/cm^2 UVB. […] After irradiation, the solution was replaced with growth medium and the cells were further incubated for 48 h, and then, cell viability was assessed by MTT assay. […] The phototoxicity of tested molecules was compared with the ratio of cell survival of irradiated keratinocytes without substance (IC = irradiated control).
compound,measurement,setting,value
"Oc1ccc(-c2nc3ccccc3[nH]2)cc1 [Compound 7, 2-(4-Hydroxy-phenyl)-1H-benzimidazole]",DPPH,[1],1.67 ± 0.08 μmolTrolox/mmol
same,FRAP,[2],21.94 ± 0.12 μmolTrolox/mmol
same,λ max,[3]; aqueous solution at pH 7,306 nm
same,ɛ (molar extinction coefficient),"[3]; aqueous solution at pH 7, at λ max, linear regression Lambert–Beer",24 000
same,IC50 at 72 h,[4],26.1 ± 2.4 µM
same,viability at 20 µM,[5]; read-out: % Cell survival UVA 20 J/cm^2,72.8 ± 2.9%
same,viability at 20 µM,[5]; read-out: % Cell survival UVB 0.5 J/cm^2,74.2 ± 1.3%
same,viability at 20 µM,[5]; read-out: % Cell survival UVB 1 J/cm^2,44 ± 4.1%
